Data taken from PubChem BioAssay (NCI).
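Cells were grown in 96-well plates and exposed to each compound for 48 hours at five concentrations; endpoints were interpolated linearly between bracketing concentrations, or set to the highest concentration if not reached. Abbreviation: GI50, concentration required for 50% inhibition of growth. TGI: concentration producing complete growth inhibition.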

Experiments:
Experiment in all cases: inhibition of tumour cell growth, NCI panel, 48 h
SK-MEL-5 melanoma = test system: SK-MEL-5 melanoma
SNB-19 CNS = test system: SNB-19 CNS
M14 melanoma = test system: M14 melanoma
OVCAR-5 ovarian = test system: OVCAR-5 ovarian
NCI-H460 lung = test system: NCI-H460 lung
HOP-92 NSCLC = test system: HOP-92 NSCLC
K-562 leukemia = test system: K-562 leukemia
A549 NSCLC = test system: A549 NSCLC
UACC-257 melanoma = test system: UACC-257 melanoma
LOX IMVI melanoma = test system: LOX IMVI melanoma
MOLT-4 leukemia = test system: MOLT-4 leukemia
HT29 colon = test system: HT29 colon
ACHN renal = test system: ACHN renal
MDA-MB-468 breast = test system: MDA-MB-468 breast
U251 CNS = test system: U251 CNS
UACC-62 melanoma = test system: UACC-62 melanoma
EKVX NSCLC = test system: EKVX NSCLC
HCC-2998 colon = test system: HCC-2998 colon
HS 578T breast = test system: HS 578T breast
SK-MEL-2 melanoma = test system: SK-MEL-2 melanoma
CAKI-1 renal = test system: CAKI-1 renal
MDA-MB-435 = test system: MDA-MB-435
TK-10 renal = test system: TK-10 renal
SF-295 CNS = test system: SF-295 CNS
786-0 renal = test system: 786-0 renal
T-47D breast = test system: T-47D breast
RXF 393 renal = test system: RXF 393 renal
MALME-3M melanoma = test system: MALME-3M melanoma
HCT-15 colon = test system: HCT-15 colon
BT-549 breast = test system: BT-549 breast
COLO 205 colon = test system: COLO 205 colon
KM12 colon = test system: KM12 colon
OVCAR-4 ovarian = test system: OVCAR-4 ovarian
SK-MEL-28 melanoma = test system: SK-MEL-28 melanoma
RPMI-8226 leukemia = test system: RPMI-8226 leukemia
HL-60(TB) leukemia = test system: HL-60(TB) leukemia
DU-145 prostate = test system: DU-145 prostate
A498 renal = test system: A498 renal
NCI-H522 lung = test system: NCI-H522 lung
SR leukemia = test system: SR leukemia
NCI-H226 lung = test system: NCI-H226 lung
NCI/ADR-RES ovarian = test system: NCI/ADR-RES ovarian
MCF7 breast = test system: MCF7 breast
HOP-62 NSCLC = test system: HOP-62 NSCLC
SF-539 CNS = test system: SF-539 CNS
OVCAR-8 ovarian = test system: OVCAR-8 ovarian
MDA-MB-231 breast = test system: MDA-MB-231 breast
SW-620 colon = test system: SW-620 colon
CCRF-CEM leukemia = test system: CCRF-CEM leukemia
NCI-H23 lung = test system: NCI-H23 lung
SF-268 CNS = test system: SF-268 CNS
PC-3 prostate = test system: PC-3 prostate
OVCAR-3 ovarian = test system: OVCAR-3 ovarian
SK-OV-3 ovarian = test system: SK-OV-3 ovarian
SN12C renal = test system: SN12C renal
IGROV1 ovarian = test system: IGROV1 ovarian
HCT-116 colon = test system: HCT-116 colon
UO-31 renal = test system: UO-31 renal
SNB-75 CNS = test system: SNB-75 CNS

NS(=O)(=O)c1ccc(Nc2nc(N/N=C/c3cc(Br)c(O)c(Br)c3)nc(Nc3ccccc3)n2)cc1
GI50 (SK-MEL-5 melanoma): 14.9 µM
TGI (SK-MEL-5 melanoma): 28.6 µM
GI50 (SNB-19 CNS): 14.2 µM
TGI (SNB-19 CNS): 27.7 µM
GI50 (M14 melanoma): 18.8 µM
TGI (M14 melanoma): 45.7 µM
GI50 (OVCAR-5 ovarian): 22.7 µM
TGI (OVCAR-5 ovarian): 62.6 µM
GI50 (NCI-H460 lung): 19.6 µM
TGI (NCI-H460 lung): 60.1 µM
GI50 (HOP-92 NSCLC): 26.7 µM
TGI (HOP-92 NSCLC): 81.2 µM
GI50 (K-562 leukemia): 23.4 µM
TGI (K-562 leukemia): > 100 µM
GI50 (A549 NSCLC): 21.8 µM
TGI (A549 NSCLC): 67.5 µM
GI50 (UACC-257 melanoma): 20.6 µM
TGI (UACC-257 melanoma): 47.9 µM
GI50 (LOX IMVI melanoma): 15.8 µM
TGI (LOX IMVI melanoma): 30.4 µM
GI50 (MOLT-4 leukemia): 19.7 µM
TGI (MOLT-4 leukemia): 52.3 µM
GI50 (HT29 colon): 19.6 µM
TGI (HT29 colon): 49.1 µM
GI50 (ACHN renal): 24.8 µM
TGI (ACHN renal): 93.8 µM
GI50 (MDA-MB-468 breast): 2.94 µM
TGI (MDA-MB-468 breast): 15.5 µM
GI50 (U251 CNS): 20 µM
TGI (U251 CNS): 71 µM
GI50 (UACC-62 melanoma): 14.5 µM
TGI (UACC-62 melanoma): 28.3 µM
GI50 (EKVX NSCLC): 21.4 µM
TGI (EKVX NSCLC): 69.2 µM
GI50 (HCC-2998 colon): 14.8 µM
TGI (HCC-2998 colon): 29.2 µM
GI50 (HS 578T breast): 7.76 µM
TGI (HS 578T breast): 81.3 µM
GI50 (SK-MEL-2 melanoma): 15.7 µM
TGI (SK-MEL-2 melanoma): 38.1 µM
GI50 (CAKI-1 renal): 24 µM
TGI (CAKI-1 renal): 85.7 µM
GI50 (MDA-MB-435): 17.8 µM
TGI (MDA-MB-435): 40.6 µM
GI50 (TK-10 renal): 27.7 µM
TGI (TK-10 renal): 87 µM
GI50 (SF-295 CNS): 22.2 µM
TGI (SF-295 CNS): 60.2 µM
GI50 (786-0 renal): 15.1 µM
TGI (786-0 renal): 44.3 µM
GI50 (T-47D breast): 7.39 µM
TGI (T-47D breast): 27.3 µM
GI50 (RXF 393 renal): 14.7 µM
TGI (RXF 393 renal): 32.8 µM
GI50 (MALME-3M melanoma): 14.7 µM
TGI (MALME-3M melanoma): 34.8 µM
GI50 (HCT-15 colon): 32.3 µM
TGI (HCT-15 colon): > 100 µM
GI50 (BT-549 breast): 16.8 µM
TGI (BT-549 breast): 42.7 µM
GI50 (COLO 205 colon): 16 µM
TGI (COLO 205 colon): 29.8 µM
GI50 (KM12 colon): 17.5 µM
TGI (KM12 colon): 37.1 µM
GI50 (OVCAR-4 ovarian): 23.2 µM
TGI (OVCAR-4 ovarian): 81.4 µM
GI50 (SK-MEL-28 melanoma): 18.1 µM
TGI (SK-MEL-28 melanoma): 40.6 µM
GI50 (RPMI-8226 leukemia): 22.8 µM
TGI (RPMI-8226 leukemia): 93.5 µM
GI50 (HL-60(TB) leukemia): 22 µM
TGI (HL-60(TB) leukemia): 60.9 µM
GI50 (DU-145 prostate): 16.1 µM
TGI (DU-145 prostate): 30.2 µM
GI50 (A498 renal): 13.3 µM
TGI (A498 renal): 36.6 µM
GI50 (NCI-H522 lung): 16.8 µM
TGI (NCI-H522 lung): 42.4 µM
GI50 (SR leukemia): 15.9 µM
TGI (SR leukemia): > 100 µM
GI50 (NCI-H226 lung): 26.5 µM
TGI (NCI-H226 lung): 98.2 µM
GI50 (NCI/ADR-RES ovarian): > 100 µM
TGI (NCI/ADR-RES ovarian): > 100 µM
GI50 (MCF7 breast): 16.9 µM
TGI (MCF7 breast): 45.4 µM
GI50 (HOP-62 NSCLC): 21.3 µM
TGI (HOP-62 NSCLC): 58.9 µM
GI50 (SF-539 CNS): 17.9 µM
TGI (SF-539 CNS): 41.3 µM
GI50 (OVCAR-8 ovarian): 26.9 µM
TGI (OVCAR-8 ovarian): > 100 µM
GI50 (MDA-MB-231 breast): 17.2 µM
TGI (MDA-MB-231 breast): 47.4 µM
GI50 (SW-620 colon): 17.2 µM
TGI (SW-620 colon): 42.4 µM
GI50 (CCRF-CEM leukemia): 11.1 µM
TGI (CCRF-CEM leukemia): 41.6 µM
GI50 (NCI-H23 lung): 20.9 µM
TGI (NCI-H23 lung): 50.1 µM
GI50 (SF-268 CNS): 19.9 µM
TGI (SF-268 CNS): 58.6 µM
GI50 (PC-3 prostate): 19.5 µM
TGI (PC-3 prostate): 55.2 µM
GI50 (OVCAR-3 ovarian): 21.4 µM
TGI (OVCAR-3 ovarian): 63.1 µM
GI50 (SK-OV-3 ovarian): 21.3 µM
TGI (SK-OV-3 ovarian): 61.9 µM
GI50 (SN12C renal): 15.6 µM
TGI (SN12C renal): 32.1 µM
GI50 (IGROV1 ovarian): 18.5 µM
TGI (IGROV1 ovarian): 42.2 µM
GI50 (HCT-116 colon): 17.7 µM
TGI (HCT-116 colon): 38.9 µM
GI50 (UO-31 renal): 26.7 µM
TGI (UO-31 renal): > 100 µM
GI50 (SNB-75 CNS): 18.6 µM
TGI (SNB-75 CNS): 61.7 µM
